Assay results published in patent US8426437B2, “Pyrroloquinoline derivatives and their use as protein kinases inhibitors” (Pierre Fabre Medicament, priority 2005, dated 2013).
pIC50: −log10 of the molar value. Where a name gives a salt, the structure may show the parent alone.

The compounds below were run against T1, RET (Homo sapiens, UniProt P07949) (assay: Inhibition of RET kinase activity, recombinant RET method (Kinase-Glo)). Settings: RET 2 μg/ml, poly-EY4 substrate, 20 μM ATP, two hours at 30° C.
T1 construct: purchased Upstate 14-570MG
T1 sequence (P07949 29-1114): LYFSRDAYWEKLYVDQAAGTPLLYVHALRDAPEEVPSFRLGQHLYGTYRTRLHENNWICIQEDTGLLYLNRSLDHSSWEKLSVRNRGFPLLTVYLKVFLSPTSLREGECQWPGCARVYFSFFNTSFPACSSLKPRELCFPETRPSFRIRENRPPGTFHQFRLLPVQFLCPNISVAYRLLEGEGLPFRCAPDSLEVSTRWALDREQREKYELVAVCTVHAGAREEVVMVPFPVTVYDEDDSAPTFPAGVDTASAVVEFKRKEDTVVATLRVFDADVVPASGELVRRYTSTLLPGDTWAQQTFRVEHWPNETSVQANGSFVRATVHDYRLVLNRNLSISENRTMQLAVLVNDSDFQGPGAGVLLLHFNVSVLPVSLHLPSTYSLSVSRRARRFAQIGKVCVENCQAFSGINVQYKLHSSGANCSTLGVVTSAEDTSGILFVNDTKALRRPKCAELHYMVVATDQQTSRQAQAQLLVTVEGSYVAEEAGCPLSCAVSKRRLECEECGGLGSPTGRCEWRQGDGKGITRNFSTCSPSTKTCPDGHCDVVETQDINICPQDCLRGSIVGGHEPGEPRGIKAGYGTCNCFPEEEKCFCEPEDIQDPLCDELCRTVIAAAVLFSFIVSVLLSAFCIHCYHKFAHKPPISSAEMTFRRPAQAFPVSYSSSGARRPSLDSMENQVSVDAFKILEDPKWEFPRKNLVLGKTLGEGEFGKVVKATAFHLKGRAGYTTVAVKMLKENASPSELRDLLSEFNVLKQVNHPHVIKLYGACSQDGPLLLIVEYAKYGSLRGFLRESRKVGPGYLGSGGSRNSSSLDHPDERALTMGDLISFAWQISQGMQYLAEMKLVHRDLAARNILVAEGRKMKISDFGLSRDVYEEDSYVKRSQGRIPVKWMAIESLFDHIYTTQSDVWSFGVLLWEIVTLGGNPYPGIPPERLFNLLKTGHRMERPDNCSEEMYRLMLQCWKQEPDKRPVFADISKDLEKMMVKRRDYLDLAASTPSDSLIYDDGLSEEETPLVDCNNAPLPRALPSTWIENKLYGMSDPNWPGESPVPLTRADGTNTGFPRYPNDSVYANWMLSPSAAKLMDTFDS
Type: biochemical
Method in brief: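 Recombinant RET at 2 μg/ml in 20 mM MOPS/NaOH pH 7.0, 1 mM EDTA, 5% glycerol, 0.01% Brij35, 0.1% 2-mercaptoethanol, 1 mg/ml BSA; compounds 10 nM–30 μM final.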

Row | pIC50 | Compound
1 | 5.00 to 6.00 | C#Cc1ccc2[nH]c(=O)c3[nH]cc(C(=O)OCC)c3c2c1 [Compound 199, 8-Ethynyl-4-oxo-4,5-dihydro-3H-pyrrolo[2,3-c]quinoline-1-ethyl carboxylate]
2 | 5.00 to 6.00 | CCOC(=O)c1c[nH]c2c(=O)[nH]c3ccc(C(C)=O)cc3c12 [Compound 101, 8-Acetyl-4-oxo-4,5-dihydro-3H-pyrrolo[2,3-c]quinoline-1-ethyl carboxylate]
3 | 5.00 to 6.00 | CCOC(=O)c1c[nH]c2c(=O)[nH]c3ccc(N(C)C)cc3c12 [Compound 62, 8-Dimethylamino-4-oxo-4,5-dihydro-3H-pyrrolo[2,3-c]quinoline-1-ethyl carboxylate]
4 | 5.00 to 6.00 | CCCOC(=O)c1c[nH]c2c(=O)[nH]c3ccc(S(=O)(=O)N(C)C4CCS(=O)(=O)CC4)cc3c12 [Compound 132, 8-[(1,1-Dioxo-hexahydro-1,6-thiopyran-4-yl)-methyl-sulfamoyl]-4-oxo-4,5-dihydro-3H-pyrrolo[2,3-c]quinoline-1-propyl carboxylate]
5 | 5.00 to 6.00 | CCCOC(=O)c1c[nH]c2c(=O)[nH]c3cc(OC)c(S(=O)(=O)N(C)C4CC4)cc3c12 [Compound 188]
6 | 6.00 to 7.00 | CCOC(=O)c1c[nH]c2c(=O)[nH]c3ccc(S(=O)(=O)Cc4ccncc4)cc3c12 [Compound 195, 4-Oxo-8-(pyridin-4-ylmethanesulfonyl)-4,5-dihydro-3H-pyrrolo[2,3-c]quinoline-1-ethyl carboxylate]
7 | 5.00 to 6.00 | CCOC(=O)c1c[nH]c2c(=O)[nH]c3ccc(-c4ccc(S(C)(=O)=O)cc4)cc3c12 [Compound 245, 8-(4-Methanesulfonyl-phenyl)-4-oxo-4,5-dihydro-3H-pyrrolo[2,3-c]quinoline-1-ethyl carboxylate]
8 | 5.00 to 6.00 | CN(CC(N)=O)S(=O)(=O)c1ccc2[nH]c(=O)c3[nH]cc(C(=O)O)c3c2c1 [Compound 178, 8-(Carbamoylmethyl-methyl-sulfamoyl)-4-oxo-4,5-dihydro-3H-pyrrolo[2,3-c]quinoline-1-carboxylic acid]
9 | 6.00 to 7.00 | CCOC(=O)c1c[nH]c2c(=O)[nH]c3ccc(S(=O)(=O)N(C)C)cc3c12 [Compound 26, 8-Dimethylsulfamoyl-4-oxo-4,5-dihydro-3H-pyrrolo[2,3-c]quinoline-1-ethyl carboxylate]
10 | 5.00 to 6.00 | CCOC(=O)/C=C/c1ccc2[nH]c(=O)c3[nH]cc(C(=O)OCC)c3c2c1 [Compound 65, 8-(2-Ethoxycarbonyl-vinyl)-4-oxo-4,5-dihydro-3H-pyrrolo[2,3-c]quinoline-1-ethyl carboxylate]
11 | 6.00 to 7.00 | CCCOC(=O)c1c[nH]c2c(=O)[nH]c3ccc(S(=O)(=O)N(CCO)CCO)cc3c12 [Compound 176, 8-[bis-(2-Hydroxy-ethyl)-sulfamoyl]-4-oxo-4,5-dihydro-3H-pyrrolo[2,3-c]quinoline-1-propyl carboxylate]
12 | 6.00 to 7.00 | CCOC(=O)c1c[nH]c2c(=O)[nH]c3ccc(S(=O)(=O)C4CCCCC4)cc3c12 [Compound 197, 8-Cyclohexanesulfonyl-4-oxo-4,5-dihydro-3H-pyrrolo[2,3-c]quinoline-1-ethyl carboxylate]
13 | > 7.00 | CCCOC(=O)c1c[nH]c2c(=O)[nH]c3ccc(S(=O)(=O)N(CCO)C(C)C)cc3c12 [Compound 173, 8-[(2-Hydroxy-ethyl)isopropyl-sulfamoyl]-4-oxo-4,5-dihydro-3H-pyrrolo[2,3-c]quinoline-1-propyl carboxylate]
14 | 6.00 to 7.00 | CCCOC(=O)c1c[nH]c2c(=O)[nH]c3ccc(S(=O)(=O)N(C)CCSC)cc3c12 [Compound 135, 8-[Methyl-(2-methylsulfanyl-ethyl)-sulfamoyl]-4-oxo-4,5-dihydro-3H-pyrrolo[2,3-c]quinoline-1-propyl carboxylate]
15 | 5.00 to 6.00 | CCOC(=O)c1c[nH]c2c(=O)[nH]c3ccc(S(=O)(=O)N(C)CCc4ccccc4)cc3c12 [Compound 25, 8-(Methyl-phenethyl-sulfamoyl)-4-oxo-4,5-dihydro-3H-pyrrolo[2,3-c]quinoline-1-ethyl carboxylate]
16 | 6.00 to 7.00 | CCCOC(=O)c1c[nH]c2c(=O)[nH]c3ccc(I)cc3c12 [Compound 210, 8-Iodo-4-oxo-4,5-dihydro-3H-pyrrolo[2,3-c]quinoline-1-propyl carboxylate]

The next lines start with the compound.

Row | Compound | pIC50
17 | CCOC(=O)c1c[nH]c2c(=O)[nH]c3ccc(S(=O)(=O)Nc4ccc(N5CCOCC5)cc4)cc3c12 [Compound 22, 8-(4-Morpholin-4-yl-phenylsulfamoyl)-4-oxo-4,5-dihydro-3H-pyrrolo[2,3-c]quinoline-1-ethyl carboxylate] | 4.00 to 5.00
18 | CCOC(=O)c1c[nH]c2c(=O)[nH]c3ccc(S(=O)(=O)Cc4c(Cl)cccc4Cl)cc3c12 [Compound 36, 8-(2,6-Dichlorophenylmethanesulfonyl)-4-oxo-4,5-dihydro-3H-pyrrolo[2,3-c]quinoline-1-ethyl carboxylate] | 6.00 to 7.00
19 | CCOC(=O)c1c[nH]c2c(=O)[nH]c3ccc(C#Cc4ccccn4)cc3c12 [Compound 202, 4-Oxo-8 pyridin-2-ylethynyl-4,5-dihydro-3H-pyrrolo[2,3-c]quinoline-1-ethyl carboxylate] | 5.00 to 6.00
20 | CCOC(=O)c1c[nH]c2c(=O)[nH]c3ccc(/C=C/C(=O)NCc4ccccc4)cc3c12 [Compound 68, 8-(2-Benzylcarbamoyl-vinyl)-4-oxo-4,5-dihydro-3H-pyrrolo[2,3-c]quinoline-1-ethyl carboxylate] | 5.00 to 6.00
21 | CCOC(=O)c1c[nH]c2c(=O)[nH]c3ccc(C#CC(C)(C)O)cc3c12 [Compound 204, 8-(3-Hydroxy-3-methyl-but-1-ynyl)-4-oxo-4,5-dihydro-3H-pyrrolo[2,3-c]quinoline-1-ethyl carboxylate] | 6.00 to 7.00
22 | CC(C)OC(=O)c1c[nH]c2c(=O)[nH]c3ccccc3c12 [Compound 78, 4-Oxo-4,5-dihydro-3H-pyrrolo[2,3-c]quinoline-1-carboxylate isopropyl] | 5.00 to 6.00
23 | O=C(Nc1ccccc1)c1c[nH]c2c(=O)[nH]c3ccccc3c12 [Compound 87, N-(Phenyl)-4-oxo-4,5-dihydro-3H-pyrrolo[2,3-c]quinoline-1-carboxamide] | 4.00 to 5.00
24 | CCOC(=O)c1c[nH]c2c(=O)[nH]c3ccc(S(=O)(=O)N4CCc5ccccc54)cc3c12 [Compound 21, 8-(2,3-Dihydro-indole-1-sulfonyl)-4-oxo-4,5-dihydro-3H-pyrrolo[2,3-c]quinoline-1-ethyl carboxylate] | 6.00 to 7.00
25 | CCOC(=O)c1c[nH]c2c(=O)[nH]c3ccc(S(=O)(=O)Nc4ccc(Cl)cc4)cc3c12 [Compound 11, 8-(4-Chlorophenylsulfamoyl)-4-oxo-4,5-dihydro-3H-pyrrolo[2,3-c]quinoline-1-ethyl carboxylate] | 6.00 to 7.00
26 | CCOC(=O)c1c[nH]c2c(=O)[nH]c3ccc(-c4ccccc4NC(=O)OC(C)(C)C)cc3c12 [Compound 230, 8-(2-tert-Butoxycarbonylaminophenyl)-4-oxo-4,5-dihydro-3H-pyrrolo[2,3-c]quinoline-1-ethyl carboxylate] | 4.00 to 5.00
27 | O=C(NCC1CCCCC1)c1c[nH]c2c(=O)[nH]c3ccccc3c12 [Compound 82, N-(Cyclohexylmethyl)-4-oxo-4,5-dihydro-3H-pyrrolo[2,3-c]quinoline-1-carboxamide] | 4.00 to 5.00
28 | CCOC(=O)c1c[nH]c2c(=O)[nH]c3ccc(S(=O)(=O)Nc4cccc(Cl)c4)cc3c12 [Compound 10, 8-(3-Chlorophenylsulfamoyl)-4-oxo-4,5-dihydro-3H-pyrrolo[2,3-c]quinoline-1-ethyl carboxylate] | 6.00 to 7.00
29 | C#CCN(CCNC(C)C)S(=O)(=O)c1ccc2[nH]c(=O)c3[nH]cc(C(=O)OCCC)c3c2c1 [Compound 158, 8-[(2-isopropylamino-ethyl)-prop-2-ynyl-sulfamoyl]-4-oxo-4,5-dihydro-3H-pyrrolo[2,3-c]quinoline-1-propyl carboxylate hydrochloride] | 6.00 to 7.00
30 | CCCOC(=O)c1c[nH]c2c(=O)[nH]c3ccc(S(=O)(=O)N(CCNC(C)C)C4CC4)cc3c12 [Compound 142, 8-[Cyclopropyl-(2-isopropylamino-ethyl)-sulfamoyl]-4-oxo-4,5-dihydro-3H-pyrrolo[2,3-c]quinoline-1-propyl carboxylate hydrochloride] | 6.00 to 7.00
31 | CCOC(=O)c1c[nH]c2c(=O)[nH]c3ccc(-c4csc(NC(=O)C5CC5)n4)cc3c12 [Compound 275, 8-[2-(Cyclopropanecarbonyl-amino)-thiazol-4-yl]-4-oxo-4,5-dihydro-3H-pyrrolo[2,3-c]quinoline-1-ethyl carboxylate] | 6.00 to 7.00
32 | CCOC(=O)c1c[nH]c2c(=O)[nH]c3ccc(NS(=O)(=O)c4ccc(C(C)=O)cc4)cc3c12 [Compound 55, 8-(4-Acetyl-benzenesulfonylamino)-4-oxo-4,5-dihydro-3H-pyrrolo[2,3-c]quinoline-1-ethyl carboxylate] | 5.00 to 6.00
33 | CS(=O)(=O)c1cccc(-c2ccc3[nH]c(=O)c4[nH]cc(C(=O)OC5CCCC5)c4c3c2)c1 [Compound 256, 8-(3-Methanesulfonyl-phenyl)-4-oxo-4,5-dihydro-3H-pyrrolo[2,3-c]quinoline-1-cyclopentyl carboxylate] | 6.00 to 7.00
34 | CCCOC(=O)c1c[nH]c2c(=O)[nH]c3ccc(S(=O)(=O)N(C)CC(=O)OC(C)(C)C)cc3c12 [Compound 183, 8-(tert-Butoxycarbonylmethyl-methyl-sulfamoyl)-4-oxo-4,5-dihydro-3H-pyrrolo[2,3-c]quinoline-1-propyl carboxylate] | 5.00 to 6.00
35 | CCOC(=O)c1c[nH]c2c(=O)[nH]c3ccc(NS(=O)(=O)c4ccc(Cl)cc4)cc3c12 [Compound 40, 8-(4-Chloro-benzenesulfonylamino)-4-oxo-4,5-dihydro-3H-pyrrolo[2,3-c]quinoline-1-ethyl carboxylate] | 6.00 to 7.00
36 | COC(=O)CCNC(=O)c1c[nH]c2c(=O)[nH]c3ccccc3c12 [Compound 81, 3-[(4-Oxo-4,5-dihydro-3H-pyrrolo[2,3-c]quinoline-1-carbonyl)-amino]-methyl propanoate] | 4.00 to 5.00
37 | CN(C)C(=O)c1c[nH]c2c(=O)[nH]c3ccccc3c12 [Compound 89, N,N-(Dimethyl)-4-oxo-4,5-dihydro-3H-pyrrolo[2,3-c]quinoline-1-carboxamide] | 4.00 to 5.00
